Values after ≈ are worked out from the molar mass of the structure shown. Read-outs that look alike come from different tables or passages of the source. *1 amine or outer side, *2 acyl side, *3 side chain or, on linkers, in order; H or OH if unused. Where a SMILES comes first, the peptide text is derived from it. Side-chain parts run from the residue outwards. [ ]: non-standard residue; d: D form. The star is where a group is joined. γGlu = O=C(O)[C@H](CCC(=O)[*:2])N[*:1]; Palmitoyl = CCCCCCCCCCCCCCCC(=O)*; Nle = CCCC[C@H](N)C(=O)O; AEEA = NCCOCCOCC(=O)O; Aib = CC(C)(N)C(=O)O
What was measured:
[1] = biological target: T1, RXFP1 (Homo sapiens, UniProt Q9HBX9); experiment: OVCAR5 cAMP assay (HTRF), RXFP1 agonist activity; type: cell-based; details: for EC50: OVCAR5 cells, cAMP HTRF, read-out: EC50 (nM), OVCAR 5 cells (cAMP); for Emax: OVCAR-5, maximal cAMP relative to H2-relaxin maximum (100%), read-out: EMax, OVCAR 5 cells (cAMP)
T1 construct: OVCAR5 cells expressing endogenous RXFP1; endogenous in cells; host or cells: OVCAR5 cells
T1 sequence (Q9HBX9 1-757): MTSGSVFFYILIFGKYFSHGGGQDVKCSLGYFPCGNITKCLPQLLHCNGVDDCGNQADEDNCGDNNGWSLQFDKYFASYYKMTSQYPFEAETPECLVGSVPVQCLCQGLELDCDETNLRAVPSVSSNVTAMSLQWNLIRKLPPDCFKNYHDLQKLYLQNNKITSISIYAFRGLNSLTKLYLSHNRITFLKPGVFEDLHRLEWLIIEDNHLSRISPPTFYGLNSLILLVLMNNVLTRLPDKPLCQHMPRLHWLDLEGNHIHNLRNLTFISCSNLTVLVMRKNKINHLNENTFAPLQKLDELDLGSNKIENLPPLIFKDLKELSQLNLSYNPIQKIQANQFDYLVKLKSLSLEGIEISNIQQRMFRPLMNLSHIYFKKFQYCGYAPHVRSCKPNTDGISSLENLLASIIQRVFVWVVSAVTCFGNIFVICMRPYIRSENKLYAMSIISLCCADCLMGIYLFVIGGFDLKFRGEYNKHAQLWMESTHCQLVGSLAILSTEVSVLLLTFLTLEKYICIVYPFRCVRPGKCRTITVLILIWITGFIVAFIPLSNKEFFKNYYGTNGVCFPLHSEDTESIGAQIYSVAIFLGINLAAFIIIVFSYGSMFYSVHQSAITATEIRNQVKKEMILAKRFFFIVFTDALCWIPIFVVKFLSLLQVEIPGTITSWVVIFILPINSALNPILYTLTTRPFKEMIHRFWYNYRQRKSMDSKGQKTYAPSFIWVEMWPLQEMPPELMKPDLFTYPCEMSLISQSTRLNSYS
How it was run: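 cAMP accumulation readout: after 1 mM IBMX for 40 min, endogenous-RXFP1 OVCAR5 cells got rising peptide concentrations without FCS, 30 min, 37° C, then lysis with HTRF cAMP reagents. Nonlinear regression gave EC50; Emax expressed relative to H2-relaxin maximum, same occasion.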

[2] = Stability testing of peptides in human plasma or blood; type: in vitro ADME; details: 37° C.
Procedure: (§1) Prior to the testing of stability in plasma (or blood) of a peptide batch, its purity (HPLC-UV) was determined.
(§2) Rat and Human plasma: anti-coagulant sodium or lithium heparin.
(§3) Rat and Human blood: anti-coagulant sodium or lithium heparin. • Stock solution: • 100 μM solution of study compound in 50 mM Phosphate buffer pH 7.4. • 950 μL plasma (or blood) was pre-incubated for 5 min at 37° C. 50 μL of compound stock solution was added. Final compound concentration=5 μM. Vortex and transfer 1504, plasma (or blood) into an Eppendorf for each time point. The time points […] were carried out in duplicate for each species.
(§4) After incubation 150 μL, plasma (or blood) was extracted with 600 μL, Acetonitrile containing with 1% TFA. Then, vortexed and centrifuged 10 min at 14600 rpm. 200 μL supernatant was dried under N2. The sample was reconstituted in 200 μL of H2O/CH3CN 98/2+0.1% FA+50 ng/ml Labetalol and analyzed using the analytical system used in solubility and stability studies.
(§5) For determination of the amount of the remaining peptide, the peak areas of the target compound at t0 and each time point […] were compared, resulting in “% remaining peptide”, following the equation: % remaining peptide=[(peak area peptide time)×100]/peak area peptide t0. The stability is expressed as “% remaining peptide”.

[3] = Stability testing of peptides in rat plasma or blood; type: in vitro ADME; details: 37° C.
Procedure: as §1, §2, §3, §4, §5

[4] = Pharmacokinetic (PK) determination after i.v. or s.c. administration to rats; type: in vivo, Sprague Dawley rats; details: Sprague Dawley, Rat PK
How it was run: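 Non-compartmental analysis of plasma LC/MS data (protein precipitation, BLQ taken as zero) gave T½, C0 (i.v.), Cmax/Tmax (s.c.) and F% from dose-corrected AUCs. Dosing: 3 mg/kg s.c. or 1 mg/kg i.v. in PBS to Sprague Dawley rats, purity- and salt-corrected.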

[5] = Solubility testing of peptides in buffer; type: physicochemical
Procedure: Prior to the testing of solubility of a peptide batch, its purity (HPLC-UV) was determined.
Acetate Buffer 50 mM pH4.5: 0.75 g […], 3H2O (Sigma 57545)+0.35 ml CH3CO2H 100% solution dissolved in Millipore water, adjusted to pH with diluted (1:1) CH3CO2H and diluted to 250 ml with Millipore water.
In a 4 ml Ependorph vial, an accurately weighed sample of compound was diluted in study media to obtain target concentration of 2, 6 or 10 mg/ml of pure compound. The sample vials were shacked (rock 'roll shaker) for ˜19 h. 3004, Aliquots ( ) were filtered through a Millipore “Solvinert” plate (0.45 μm—PTFE hydrophilic).
pH was measured with a micro electrode
Waters Acquity UPLC System with DAD detector
Column: Waters Peptide Column CSH C18 (130 Å; 1.7 μm; 50*2.1 mm)
Column temperature: 60° C.
Full loop (about 5 μL)—overfill factor 5
Weak et Strong wash: H2O/ACN (75/25; V/V); Seal wash: H2O/IsOH (95/5; V/V). Mobile phase:
Solvent A: 0.05% TFA in H2O; Solvent B: 0.035% TFA in CH3CN
Gradient: from 0 to 12 min B=2% to 60%, from 12 to 14 min B=60% to 100%. Column washing 100% B 1 min, column equilibration 2% B 2.5 min.
UV detector: wavelength: 220 nm.

Row | EC50 [1] | Emax [1] | Human Plasma stability % remaining T = 0 ([2]; human plasma or blood, T = 0 (reference), 5 μM) | remaining at 1 h, 5 µM ([2]; human plasma, 1 h, read-out: Human Plasma stability % remaining 1 h) | remaining at 4 h, 5 µM ([2]; human plasma, 4 h, read-out: Human Plasma stability % remaining 4 h) | Rat plasma stability % remaining T = 0 ([3]; rat plasma or blood, T = 0 (reference), 5 μM) | remaining at 1 h, 5 µM ([3]; rat plasma, 1 h, read-out: Rat plasma stability % remaining 1 h) | remaining at 4 h, 5 µM ([3]; rat plasma, 4 h, read-out: Rat plasma stability % remaining 4 h) | C0 ([4]; iv, 1 mg/kg i.v., extrapolated plasma concentration at t=0, read-out: C0) | half-life ([4]; plasma, iv, 1 mg/kg i.v., read-out: T½ (converted)) | Cmax ([4]; plasma, sc, 3 mg/kg s.c.) | Tmax ([4]; plasma, sc, 3 mg/kg s.c.) | bioavailability ([4]; plasma, subcutaneous, 3 mg/kg s.c. vs 1 mg/kg i.v., dose-corrected AUC ratio) | solubility ([5]; acetate buffer, pH 4.5, read-out: Solubility Acetate buffer pH 4.5) | solubility ([5]; phosphate buffer, pH 7.4, read-out: Solubility phosphate buffer pH 7.4) | SMILES
1 | 0.63 nM | 85% | 100% | 98% | 106% | 100% | 93% | 110% | 2600 nM | 2.5 h | 1600 nM | 8 h | 27% | – | – | CCCCCCCCCCCCCCCC(=O)N[C@@H](CCC(=O)NCCCC[C@H](NC(=O)CC[C@H](NC(=O)CC[C@H](NC(=O)CC[C@H](NC(=O)COCCOCCNC(=O)COCCOCCNC(=O)COCCOCCNC(=O)[C@H](CCCCN)NC(=O)[C@H](CCCCN)NC(=O)[C@H](CCCCN)NC(=O)[C@H](CCCNC(=N)N)NC(=O)C(C)(C)NC(=O)[C@H](CO)NC(=O)[C@H](Cc1c[nH]c2ccccc12)NC(=O)[C@@H](NC(=O)[C@H](CO)NC(=O)[C@H](CCCC)NC(=O)CNC(=O)[C@H](CCC(=O)O)NC(=O)C(C)(C)NC(=O)C(C)(C)NC(=O)[C@@H](NC(=O)[C@H](CCC(N)=O)NC(=O)[C@H](C)NC(=O)[C@H](CCCNC(=N)N)NC(=O)[C@@H](NC(=O)[C@H](CCCCN)NC(=O)[C@H](CCC(=O)O)NC(=O)[C@H](CCCNC(=N)N)NC(=O)CNC(=O)[C@H](CCC(=O)O)NC(=O)[C@H](CC(C)C)NC(C)=O)C(C)C)[C@@H](C)CC)[C@@H](C)O)C(=O)O)C(=O)O)C(=O)O)C(N)=O)C(=O)O [compound 107] (Ac-LEGREKVRAQI[Aib][Aib]EG[Nle]STWS[Aib]RKKK[AEEA][AEEA][AEEA][γGlu][γGlu][γGlu]K([γGlu-Palmitoyl])-NH2)
2 | 0.15 nM | 98% | – | – | – | – | – | – | – | – | – | – | – | 5900 µg/mL (≈ 1440 µM) | 5900 µg/mL (≈ 1440 µM) | CCCCCCCCCCCCCCCC(=O)N[C@@H](CCC(=O)NCCCC[C@H](NC(=O)CC[C@H](NC(=O)CC[C@H](NC(=O)COCCOCCNC(=O)COCCOCCNC(=O)COCCOCCNC(=O)[C@H](CCCCN)NC(=O)[C@H](CCCCN)NC(=O)[C@H](CCCCN)NC(=O)[C@H](CCCNC(=N)N)NC(=O)C(C)(C)NC(=O)[C@H](CO)NC(=O)[C@H](Cc1c[nH]c2ccccc12)NC(=O)[C@@H](NC(=O)[C@H](CO)NC(=O)[C@H](CCCC)NC(=O)CNC(=O)[C@H](CCC(=O)O)NC(=O)C(C)(C)NC(=O)C(C)(C)NC(=O)[C@@H](NC(=O)[C@H](CCC(N)=O)NC(=O)[C@H](C)NC(=O)[C@H](CCCNC(=N)N)NC(=O)[C@@H](NC(=O)[C@H](CCCCN)NC(=O)[C@H](CCC(=O)O)NC(=O)[C@H](CCCNC(=N)N)NC(=O)CNC(=O)[C@H](CCC(=O)O)NC(=O)[C@H](CC(C)C)NC(C)=O)C(C)C)[C@@H](C)CC)[C@@H](C)O)C(=O)O)C(=O)O)C(N)=O)C(=O)O [compound 109] (Ac-LEGREKVRAQI[Aib][Aib]EG[Nle]STWS[Aib]RKKK[AEEA][AEEA][AEEA][γGlu][γGlu]K([γGlu-Palmitoyl])-NH2)
